One test relates to p53. Kind of test: p53 protein level in Jurkat cells. It is filed as cell-based, human. The method, then: (§1) FIG. 7. Portimine A targets NMD3 and prevents polysome formation. […] (A) Immunoblot showing reduced NMD3 levels in shNMD3 Jurkat and HeLa cells. […] Jurkat cells were treated with 12.5 nM of PA for 12 or 24 hours. Jurkat and HeLa cells were treated with 5 nM or 150 nM of PA for 24 hours. Data represents mean±SD of biologically replicated experiments (n=3). […] Cell lysates were fractionated by sucrose gradient (5-50%) and each fraction were analyzed by western blot. eIF6 levels increase in 60S subunit fraction and decrease in ribosome-free fractions after PA treatment. RPS6, a 40S and polysome subunits marker, is decreased in polysome fractions after PA treatment. Results are representative of three independent experiments. […] Relative protein levels in each fraction were normalized to the peak fraction of the indicated protein from the DMSO cells and plotted. Data represents mean±SD of biologically replicated experiments (n=3). Statistical analysis was performed using multiple unpaired Student t-test. * p≤0.05; ** p≤0.01; *** p≤0.005; **** p≤0.0001. Treatment condition: Jurkat (5 M per condition); Incubate cells (1 M/mL) with inhibitors for 6 hr, 12 hr and 24 hr, respectively.
(§2) • 1) Portimine A and its functional analogs show stereo-selective acute toxicity in cancer cells (FIG. 1). […] (B) Structure of portimine related analogs: phenyl-portimine A (Ph-PA, 36) and epi-portimine A (ePA, 38). […]

For a further test, the system named is U118. Kind of test: Broad cell line profiling, U118. It is filed as cell-based. The following applies: Homo sapiens; U118, Glioblastoma; read-out: PA IC50. From the text: (§3) • A panel of human and mouse cancer cell types used to assess the breadth of PA activity, including multiple therapy resistant metastatic mesenchymal tumor cell lines and primary glioblastoma patient-derived metastatic stem/tumor initiating cell populations.

The test system of a further test is HCC1806. Kind of test: Broad cell line profiling, HCC1806. It is filed as cell-based. The conditions noted are these: Homo sapiens; HCC1806, Acantholytic Squamous Carcinoma; read-out: PA IC50.
Source text: as §3

The subject of another test is U87EGFRvIII. Kind of test: Broad cell line profiling, U87EGFRvIII. In kind it is cell-based. The conditions noted are these: Homo sapiens, EGFRvIII Expressing Glioblastoma, read-out: PA IC50.
Source text: as §3

The next test relates to GBM-A. In words: Broad cell line profiling, GBM-A. The following applies: Homo sapiens, Glioblastoma Cancer Stem Cell, read-out: PA IC50. In kind it is cell-based.
Source text: as §3

In test [1] the test system is shNMD3 Jurkat and HeLa cells. In words: Toxicity in NMD3 knock-down (shNMD3) cells. It is filed as cell-based, human. The following applies: Jurkat 12.5 nM 12 or 24 hours; Jurkat and HeLa 5 nM or 150 nM 24 hours. The method, then: as §1, §2
Another test concerns Jurkat cells. Kind of test: Polysome profiling. It is filed as cell-based, human. The following applies: 6 hours at 50 nM. The method, then:
as §1, §2

Another test deals with HT-1080. In words: Broad cell line profiling, HT-1080. In kind it is cell-based. The conditions noted are these: HT-1080, Human Fibrosarcoma; read-out: PA IC50.
Source text: as §3

The test system of the next test is GBM-F. In words: Broad cell line profiling, GBM-F. It is filed as cell-based. The following applies: Homo sapiens, Glioblastoma Cancer Stem Cell, read-out: PA IC50.
Source text: as §3

The next test concerns HepG2. In words: Broad cell line profiling, HepG2. The following applies: Homo sapiens; HepG2, Hepatocellular Carcinoma; read-out: PA IC50. In kind it is cell-based.
Source text: as §3

The next test concerns Jurkat. Kind of test: Broad cell line profiling, Jurkat. In kind it is cell-based. The conditions noted are these: Human Leukemia, read-out: PA IC50.
Source text: as §3

The subject of another test is A673. Kind of test: Broad cell line profiling, A673. It is filed as cell-based. The following applies: A673, Human Ewings Sarcoma; read-out: PA IC50.
Source text: as §3

In a further test the test system is 786-O. Kind of test: Broad cell line profiling, 786-O. It is filed as cell-based. The conditions noted are these: Homo sapiens, 786-0, Renal Adenocarcinoma, read-out: PA IC50.
Source text: as §3

The next test concerns RD. In words: Broad cell line profiling, RD. It is filed as cell-based. The conditions noted are these: Human Rhabdomyosarcoma, read-out: PA IC50.
Source text: as §3

The next test deals with XPO1. Kind of test: XPO1 protein level in Jurkat cells. In kind it is cell-based, human. The method, then:
as §1, §2

Another test relates to SUM159. In words: Broad cell line profiling, SUM159. In kind it is cell-based. The following applies: Homo sapiens; SUM159, Breast Adenocarcinoma; read-out: PA IC50.
Source text: as §3

By pIC50 is commonly meant −log10 of the IC50, conventionally taken in molar units.

pIC50: −log10 of the molar value.

In the case of `C=CC1=C[C@@H]2[C@@H]3O[C@]4(CC[C@H](O4)C(C)C[C@@H](O)C3=O)CC(O)C3=NCC[C@@]32CC1` (stereo partly shown) [PA, portimine A], in the test on p53, the p53 level entry is listed as “downregulated”. Besides, the pIC50 with U118 is 8.25; in the test on HCC1806, 9.14; in the test on U87EGFRvIII it was 8.47; in the test with GBM-A it was 8.59; in the test with HT-1080 it was 9.08; in the test on GBM-F, 8.59. Further, the negative logarithm of the IC50 (pIC50) in the test with HepG2 is 8.32; in the test on Jurkat it was 9.25; with A673, 8.60; in the test on 786-O, 8.74; with RD, 9.25; in the test with SUM159, 8.72. For the same compound, the “toxic effects in shNMD3 compared to shCtrl cells” value in [1] was “less toxic effects”. Besides, the “polysome profiling, protein translation” value in the test on Jurkat cells is reported as “protein translation inhibition”. For the same compound, the XPO1 levels entry with XPO1 was “unaffected”.

The values are drawn from patent US20260242390A1, “TOTAL SYNTHESES OF PORTIMINE A AND ANALOGUES THEREOF AS SMALL MOLECULE MODULATORS OF NMD3” (priority 2023, published 2026).
